Read-outs that look alike come from different tables or passages of the source.
Tests used:
CT26 tumor cells = assay: Effect of treatment in vivo on intratumoral immune cell types by flow cytometry, CT26 tumors; parameters: species or system Balb/c mice
Description: The other (contralateral) tumor was not dosed with R848.
Immune cell subtypes were measured by flow cytometry.

[1] = test system: proinflammatory cytokines IFNα, IFNγ, TNFα, IL-6 and IL-12; assay: Plasma cytokine induction after Compound 6 or resiquimod with staggered RSLAIL-2 in CT26 model; format: in vivo, Balb/c mice; conditions: for pro-inflammatory cytokine induction in blood, in words: 10 μg single intra/peritumoral dose; for time of peak level of IFN-γ / time of peak levels of IFNα, TNFα, IL-6 and IL-12: plasma, 10 μg intra/peritumoral
Description: The concentration of proinflammatory cytokines IFNα, IFNγ, TNFα, IL-6 and IL-12 was determined in plasma by multiplex protein measurement assay at indicated time points post dose.

[2] = Plasma and tumor concentrations following single 10 μg (R848 equivalents) intratumoral administration to CT26 tumor bearing mice; format: in vivo, Balb/c mice; parameters: unit not given here
Description: (§1) Studies were conducted to evaluate the single dose pharmacokinetics of R848 and Compound 6 in plasma and tumor tissue.
(§2) Plasma and tumor tissues were collected at pre-determined time points for analysis of R848 and Compound 6 using a qualified LC-MS/MS method.

[3] = Plasma and tumor concentrations following single 10 μg (R848 equivalents) intratumoral administration to EMT6 tumor bearing mice; format: in vivo, Balb/c mice; parameters: unit not given here
Description: as §1, §2

[4] = Plasma and tumor concentrations following single 10 μg (R848 equivalents) intratumoral administration to CT26 tumor bearing mice; format: in vivo, Balb/c mice; parameters: key: +<10; 10≤++<100; 100≤+++<1,000; 1,000≤++++; BLQ is Below the Limit of Quantitation
Description: as §1, §2

[5] = Plasma and tumor concentrations following single 10 μg (R848 equivalents) intratumoral administration to EMT6 tumor bearing mice; format: in vivo, Balb/c mice; parameters: key: +<10; 10≤++<100; 100≤+++<1,000; 1,000≤++++; BLQ is Below the Limit of Quantitation
Description: as §1, §2

TLR7/8 = assay: TLR7/8-dependent cytokine production in plasma after single 10 μg intratumoral administration, CT26 tumor bearing mice; format: in vivo, Balb/c mice
Description: Hank's Balanced Salt Solution) was administered intratumorally to Balb/c mice bearing CT26 tumor. […] (Conjugate doses and concentrations are expressed based on TLR 7/8 agonist (e.g., resiquimod or other TLR 7/8 agonist) content, wherein the mass of the TLR 7/8 agonist is expressed independent of PEG mass). Plasma was collected at pre-determined time points for analysis of level of IFN-gamma, IL-2, IL-4, IL5, IL-6, IL-1 beta, IL-10, IL-12p70, KC/GRO, TNF-alpha, and IFN-alpha. For assessing IFN-gamma, IL-2, IL-4, IL5, IL-6, IL-1 beta, IL-10, IL-12p70, KC/GRO, and TNF alpha, an electrochemiluminescence assay was performed on duplicate samples using capture antibody precoated 96 well multispot plates from Meso Scale Discovery (MSD; Gaithersburg, Md., US). […] Plates were immediately read using SECTOR Imager 2400 and data was quantitated using Discovery Workbench software version 4.0 (MSD, Gaithersburg, Md., US). Mouse IFN alpha was measured with the Verikine mouse Interferon-Alpha ELISA kit (PBL, Piscataway, N.J., USA), according to the instructions of the manufacturer. After the addition of a stop solution, the absorbance at 450 nm was determined using BioTek μQuant microplate reader (Biotek; Winooski, Vt., USA). The ELISA data was quantitated using Biotek Gen5 software (Biotek; Winooski, Vt., USA). Data are represented as the mean of the fold-change of replicates.

TLR7 pathway = conditions: 2 hours and 6 hours following treatment with Compound 6
Description: Cytokine analysis (in CT26 tumor-bearing mice): Tumor and plasma samples were obtained at multiple time points following administration for cytokine analysis. RNA was isolated from treated tumors to assess induction of type I interferon- and NFκB-dependent gene expression. A panel of pro-inflammatory cytokines was measured from tumor tissue and plasma by multiplex protein measurement assay.

hTLR7 = molecular target: T1, hTLR7 (Homo sapiens, UniProt Q9NYK1); assay: SEAP reporter gene assay in HEK293 cells stably transfected with human TLR receptor; format: cell-based; conditions: downstream hTLR7 and hTLR8
T1 construct: expressed in transfected cells; host or cells: HEK293
T1 sequence (Q9NYK1 27-1049): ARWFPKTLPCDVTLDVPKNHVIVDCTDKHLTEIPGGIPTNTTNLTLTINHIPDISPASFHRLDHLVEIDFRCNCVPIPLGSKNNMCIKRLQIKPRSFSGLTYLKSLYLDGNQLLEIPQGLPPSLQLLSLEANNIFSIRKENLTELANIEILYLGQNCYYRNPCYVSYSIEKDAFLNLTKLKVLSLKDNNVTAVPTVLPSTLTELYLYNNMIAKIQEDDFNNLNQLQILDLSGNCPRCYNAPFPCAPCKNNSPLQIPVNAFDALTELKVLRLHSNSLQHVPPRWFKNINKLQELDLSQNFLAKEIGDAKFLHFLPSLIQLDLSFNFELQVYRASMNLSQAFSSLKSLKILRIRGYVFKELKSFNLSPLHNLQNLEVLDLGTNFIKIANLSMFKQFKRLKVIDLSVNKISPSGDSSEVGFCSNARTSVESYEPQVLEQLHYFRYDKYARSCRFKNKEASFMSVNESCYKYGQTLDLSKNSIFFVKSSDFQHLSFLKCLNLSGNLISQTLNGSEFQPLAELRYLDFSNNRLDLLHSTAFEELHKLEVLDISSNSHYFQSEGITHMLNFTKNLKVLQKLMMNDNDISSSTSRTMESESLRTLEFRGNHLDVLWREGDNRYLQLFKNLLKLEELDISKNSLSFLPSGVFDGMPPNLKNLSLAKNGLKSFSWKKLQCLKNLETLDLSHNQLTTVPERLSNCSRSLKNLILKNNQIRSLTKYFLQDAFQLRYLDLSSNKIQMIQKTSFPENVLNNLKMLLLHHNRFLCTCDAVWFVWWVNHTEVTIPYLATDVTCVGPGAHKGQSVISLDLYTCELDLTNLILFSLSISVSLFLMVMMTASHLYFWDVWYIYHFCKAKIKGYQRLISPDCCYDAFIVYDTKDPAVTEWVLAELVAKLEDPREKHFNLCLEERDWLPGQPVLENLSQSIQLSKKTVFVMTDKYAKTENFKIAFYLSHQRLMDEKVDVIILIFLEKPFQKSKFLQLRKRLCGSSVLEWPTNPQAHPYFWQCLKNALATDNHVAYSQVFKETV
Excerpt: Parental cell lines (Null1 and Null1K, stably transfected with the SEAP reports but without hTLR receptor expression) were used as negative controls.

[6] = test system: bilateral CT26 subcutaneous tumors
[7] = 2 hours after single 10 μg intratumoral administration
[8] = 6 hours after single 10 μg intratumoral administration

Description for EMT6 tumor cells: In vivo model: Mice used were ˜10 weeks old female Balb/c strain with 2 million EMT6 tumor cells implanted on each flank. Cells were allowed to mature into tumors for 7 days reaching a volume of 75-150 mm^3 volume.
Measurements: Tumor volumes were collected by caliper measurements 2-3 times per week and calculated using formula: L×W^2/2 where L is tumor length and W is tumor width.

Compound: CCOCc1nc2c(N)nc3ccccc3c2n1CC(C)(C)O [Compound R848, 1-(4-Amino-2-(ethoxymethyl)-1H-imidazo[4,5-c]quinolin-1-yl)-2-methylpropan-2-ol]
- CD8 T Cells (Percent of Vehicle) (CT26 tumor cells): 95%
- CD11c+ CD8+ Dendritic Cells (Percent of Vehicle) (CT26 tumor cells): 135%
- Macrophages (Percent of Vehicle) (CT26 tumor cells): 80%
- Monocytes (Percent of Vehicle) (CT26 tumor cells): 160%
- Neutrophils (Percent of Vehicle) (CT26 tumor cells): 500%
- T Regulatory Cells (Percent of Vehicle) (CT26 tumor cells): 20%
- pro-inflammatory cytokine induction in blood, in words [1]: robust pro-inflammatory cytokine induction in blood
- time of peak level of IFN-γ [1]: 6 h
- time of peak levels of IFNα, TNFα, IL-6 and IL-12 [1]: 2 h
- R848 plasma concentration ([2]; 0.25 hr post-dose): ++ (10≤++<100)
- R848 tumor concentration ([2]; 0.25 hr post-dose): ++ (1,000≤++<10,000)
- R848 plasma concentration ([2]; 2.00 hr post-dose): + (+<10)
- R848 tumor concentration ([2]; 2.00 hr post-dose): + (+<1,000)
- R848 plasma concentration ([2]; 6.00 hr post-dose): + (+<10)
- R848 tumor concentration ([2]; 6.00 hr post-dose): + (+<1,000)
- R848 plasma concentration ([2]; 24.00 hr post-dose): + (+<10)
- R848 tumor concentration ([2]; 24.00 hr post-dose): + (+<1,000)
- R848 tumor concentration ([2]; 72.00 hr post-dose): + (+<1,000)
- R848 tumor concentration ([2]; 96.00 hr post-dose): + (+<1,000)
- R848 tumor concentration ([2]; 120.00 hr post-dose): + (+<1,000)
- R848 tumor concentration ([2]; 144.00 hr post-dose): + (+<1,000)
- R848 plasma concentration ([3]; 0.25 hr post-dose): +++ (100≤+++<1,000)
- R848 tumor concentration ([3]; 0.25 hr post-dose): ++ (1,000≤++<10,000)
- R848 plasma concentration ([3]; 2.00 hr post-dose): + (+<10)
- R848 tumor concentration ([3]; 2.00 hr post-dose): + (+<1,000)
- R848 plasma concentration ([3]; 6.00 hr post-dose): + (+<10)
- R848 tumor concentration ([3]; 6.00 hr post-dose): + (+<1,000)
- R848 tumor concentration ([3]; 24.00 hr post-dose): + (+<1,000)
- R848 tumor concentration ([3]; 72.00 hr post-dose): + (+<1,000)
- R848 tumor concentration ([3]; 96.00 hr post-dose): + (+<1,000)
- R848 tumor concentration ([3]; 120.00 hr post-dose): + (+<1,000)
- R848 tumor concentration ([3]; 144.00 hr post-dose): + (+<1,000)
- R848 plasma concentration ([4]; 72.00 hr post-dose): BLQ
- R848 plasma concentration ([4]; 96.00 hr post-dose): BLQ
- R848 plasma concentration ([4]; 120.00 hr post-dose): BLQ
- R848 plasma concentration ([4]; 144.00 hr post-dose): BLQ
- R848 plasma concentration ([5]; 24.00 hr post-dose): BLQ
- R848 plasma concentration ([5]; 72.00 hr post-dose): BLQ
- R848 plasma concentration ([5]; 96.00 hr post-dose): BLQ
- R848 plasma concentration ([5]; 120.00 hr post-dose): BLQ
- R848 plasma concentration ([5]; 144.00 hr post-dose): BLQ

Compound: 4-arm-PEG20k-CM-glycine-N-R848 [Compound 6]
- IFNa fold change (treated/vehicle) (TLR7/8; [7]): + (+<50)
- IL6 fold change (treated/vehicle) (TLR7/8; [7]): ++ (50≤++<200)
- IL12 fold change (treated/vehicle) (TLR7/8; [7]): + (+<50)
- KC/GRO fold change (treated/vehicle) (TLR7/8; [7]): + (+<50)
- TNFa fold change (treated/vehicle) (TLR7/8; [7]): + (+<50)
- IFNg fold change (treated/vehicle) (TLR7/8; [8]): +++ (10≤+++<20)
- IL10 fold change (treated/vehicle) (TLR7/8; [8]): + (+<5)
- concentration of systemic cytokines compared with tumor (IL-6, KC/GRO, TNF-α, IL-1β, IL-5, IFN-α, IFN-γ, IL-2, IL-12p70) (TLR7 pathway): significantly less than that in the tumor
- fold higher concentration for reporter activation compared to resiquimod (hTLR7): > 20 fold
- induction of cytokines in plasma, in words ([1]; 1 μg single intra/peritumoral dose): very modest induction of all cytokines in plasma
- pro-inflammatory cytokine induction in blood, in words [1]: robust pro-inflammatory cytokine induction in blood
- time of peak level of IFN-γ [1]: 6 h
- time of peak levels of IFNα, TNFα, IL-6 and IL-12 [1]: 2 h
- Survival Proportions (EMT6 tumor cells; day 0 after treatment start): ++++ (75%≤++++<100%)
- Survival Proportions (EMT6 tumor cells; day 3 after treatment start): ++++ (75%≤++++<100%)
- Survival Proportions (EMT6 tumor cells; day 8 after treatment start): ++++ (75%≤++++<100%)
- Survival Proportions (EMT6 tumor cells; day 13 after treatment start): ++++ (75%≤++++<100%)
- Survival Proportions (EMT6 tumor cells; day 15 after treatment start): ++++ (75%≤++++<100%)
- Survival Proportions (EMT6 tumor cells; day 20 after treatment start): +++ (50%≤+++<75%)
- Survival Proportions (EMT6 tumor cells; day 27 after treatment start): ++ (25%≤++<50%)
- Survival Proportions (EMT6 tumor cells; day 34 after treatment start): + (0%≤+<25%)
- Survival Proportions (EMT6 tumor cells; day 42 after treatment start): + (0%≤+<25%)
- Survival Proportions (EMT6 tumor cells; day 48 after treatment start): + (0%≤+<25%)
- Survival Proportions (EMT6 tumor cells; day 55 after treatment start): none
- survival of the animals (EMT6 tumor cells; end of the study at day 55 after commencement of dosing): no surviving animals
- CD8+ T cells in tumors ([6]; after combination treatment with RSLAIL-2 (0.8 mg/kg i.v. four days after Compound 6), day 7): selective Compound 6-dose dependent increase
- relative fraction of regulatory T cells in tumors ([6]; after combination treatment with RSLAIL-2, day 7): decreased dramatically
- CD8:Treg ratio in the blood ([6]; both treatment groups (10 μg or 0.1 μg) after RSLAIL-2): overall reduction
- intratumoral neutrophils in treated tumors ([6]; one day after treatment, 10 μg dose): increase in intratumoral neutrophils
